The test has as its target T1, GST-tagged ROR gamma ligand binding domain (LBD) (Homo sapiens, UniProt P51449).
T1 construct: purchased Invitrogen
T1 sequence (P51449 269-508 limits assumed): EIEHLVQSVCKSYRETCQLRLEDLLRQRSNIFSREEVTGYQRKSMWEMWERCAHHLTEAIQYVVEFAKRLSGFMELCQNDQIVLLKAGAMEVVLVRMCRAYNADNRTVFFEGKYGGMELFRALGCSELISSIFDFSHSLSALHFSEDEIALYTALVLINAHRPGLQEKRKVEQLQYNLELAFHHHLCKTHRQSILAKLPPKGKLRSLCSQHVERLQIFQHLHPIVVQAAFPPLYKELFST
Kind of test: TR-FRET assay for ROR gamma (LanthaScreen co-activator peptide recruitment). The format is biochemical. As to conditions: for IC50: class symbols, from dose response curve; for inhibition at 1 µM: compound 1 μM; for inhibition at 1 µM / inhibition at 10 µM: TR-FRET ratio 520/495, percent of control; for inhibition at 10 µM: compound 10 μM. The source says: The compounds described herein were screened for ROR gamma modulator activity using the TR-FRET assay by Lantha Screen as described in JBC 2011, 286, 26: 22707-10; and Drug Metabolism and Disposition 2009, 37, 10: 2069-78.
The assay is based on the principle that binding of the agonist to the ROR gamma causes a conformational change around helix 12 in the ligand binding domain, resulting in higher affinity for the co-activator peptide. ROR gamma being constitutively active, the Fluorescein-D22 co-activator peptide used in the assay is recruited in the absence of a ligand. Binding of the co-activator peptide, causes an increase in the TR-FRET signal while binding of an antagonist decreases the recruitment of the co-activator peptide, causing a decrease in the TR-FRET signal compared to control with no compound. The assay was performed using a two-step procedure, pre-incubation step with the compound followed by the detection step on addition of the anti-GST tagged terbium (Tb) and fluorescein tagged fluorophores as the acceptor.
Test compounds or reference compounds such as T0901317 (Calbiochem) were dissolved in dimethylsulfoxide (DMSO) to prepare 10.0 mM stock solutions and diluted to the desired concentration. The final concentration of DMSO in the reaction was 4% (v/v). The assay mixture was prepared by mixing 10 nM of the GST-tagged ROR gamma ligand binding domain (LBD) in the assay buffer containing 25 mM HEPES (pH 7.4), 100 mM NaCl, 5 mM DTT and 0.01% BSA with or without the desired concentration of the compound. The reaction was incubated at 22° C. for 1 hour. The pre-incubation step was terminated by addition of the detection mixture containing 300 nM Fluorescein-D22 co-activator peptide and 10 nM lantha screen Tb-anti GST antibody into the reaction mixture. After shaking for 5 minutes the reaction was further incubated for 1 hour at room temperature and read at 4° C. on an Infinite F500 reader as per the kit instructions (Invitrogen). The inhibition of test compound was calculated based on the TR-FRET ratio of 520/495. The activity was calculated as a percent of control reaction. IC50 values were calculated from dose response curve by nonlinear regression analysis using GraphPad Prism software.
Percentage inhibition at concentrations of 1.0 μM and 10.0 μM are given in the table along with IC50 (nM) details for selected examples.

Each structure is given as a SMILES string.

Broadly, the IC50 is the concentration needed to halve the response being measured. Broadly, the inhibition is the relative decrease from the control value, in per cent. For the compound `CCn1c(C2(Oc3ccc(NC(=O)Cc4ccc(S(=O)(=O)CC)cc4)cc3)CC2)nc2ccc(Cl)cc21` [Example 23, N-(4-{[1-(6-Chloro-1-ethyl-1H-benzimidazol-2-yl)cyclopropyl]oxy}phenyl)-2-[4-(ethylsulfonyl)phenyl]acetamide], the half-maximal inhibitory concentration (IC50) was above 100 nM, the inhibition at 1 µM was determined as 69.6% and the inhibition at 10 µM is 86%.

Take `CCn1c(C2(Oc3ccc(NC(=O)Cc4ccc(S(=O)(=O)CC)cc4)cc3)CC2)nc2cc(Cl)ccc21` [Example 24, N-{4-[1-(5-Chloro-1-ethyl-1H-benzoimidazol-2-yl)-cyclopropoxy]-phenyl}-2-(4-ethanesulfonyl-phenyl)-acetamide]: the concentration for half-maximal inhibition (IC50) was above 100 nM, the inhibition at 1 µM was 65.7% and the inhibition at 10 µM was 85.6%.

As to `CCS(=O)(=O)c1ccc(CC(=O)Nc2ccc(OC3(c4nc5cc(Cl)ccc5n4C)CCC3)cc2)cc1` [Example 25, N-{4-[1-(5-Chloro-1-methyl-1H-benzoimidazol-2-yl)-cyclobutoxy]-phenyl}-2-(4-ethanesulfonyl-phenyl)-acetamide], the IC50 was in the range of 50 to 100 nM, the inhibition at 1 µM came to 85.3% and the inhibition at 10 µM was found to be 94.2%.

On to `CCn1c(C2(Oc3ccc(NC(=O)Cc4ccc(S(=O)(=O)CC)cc4)cc3)CCC2)nc2cc(F)ccc21` [Example 26, 2-(4-Ethanesulfonyl-phenyl)-N-{4-[1-(1-ethyl-5-fluoro-1H-benzoimidazol-2-yl)-cyclobutoxy]-phenyl}-acetamide], for which the concentration for half-maximal inhibition (IC50) is 50 to 100 nM, the inhibition at 1 µM was determined as 80.5% and the inhibition at 10 µM worked out at 90.9%.

In the case of `CCS(=O)(=O)c1ccc(CC(=O)Nc2ccc(OC3(c4nnc5ccc(Cl)cn45)CCC3)cc2)cc1` [Example 27, N-{4-[1-(6-Chloro-[1,2,4]triazolo[4,3-a]pyridin-3-yl)-cyclobutoxy]-phenyl}-2-(4-ethanesulfonyl-phenyl)-acetamide], the IC50 was in the range of 50 to 100 nM, the inhibition at 1 µM was found to be 69.7% and the inhibition at 10 µM came out at 90%.

For `CCS(=O)(=O)c1ccc(CC(=O)Nc2ccc(OC(C)(C)c3noc(-c4ccc(Cl)cc4)n3)cc2)cc1` [Example 28, N-(4-{1-[5-(4-Chloro-phenyl)-[1,2,4]oxadiazol-3-yl]-1-methyl-ethoxy}-phenyl)-2-(4-ethanesulfonyl-phenyl)-acetamide], the inhibition at 1 µM was determined as 61.1% and the inhibition at 10 µM was 84.4%.

Turning to `CCS(=O)(=O)c1ccc(CC(=O)Nc2ccc(OC(C)(C)Cn3ccc4cc(Cl)ccc43)cc2)cc1` [Example 29, N-(4-{[1-(5-Chloro-1H-indol-1-yl)-2-methylpropan-2-yl]oxy}phenyl)-2-[4-(ethylsulfonyl)phenyl]acetamide], the IC50 was below 50 nM, the inhibition at 1 µM was found to be 80.3% and the inhibition at 10 µM was 82.8%.

`CCS(=O)(=O)c1ccc(CC(=O)Nc2ccc(OC(C)(C)Cn3c(C)cc4cc(F)ccc43)cc2)cc1` [Example 30, 2-[4-(Ethylsulfonyl)phenyl]-N-(4-{[1-(5-fluoro-2-methyl-1H-indol-1-yl)-2-methylpropan-2-yl]oxy}phenyl)acetamide]: the inhibition at 1 µM amounted to 67.7% and the inhibition at 10 µM is 70.7%.

Turning to `CCS(=O)(=O)c1ccc(CC(=O)Nc2ccc(OC3(c4ccc(Cl)cc4)CCC3)cc2)cc1` [Example 31, N-{4-[1-(4-Chloro-phenyl)-cyclobutoxy]-phenyl}-2-(4-ethanesulfonyl-phenyl)-acetamide], the half-inhibitory concentration (IC50) was 50 to 100 nM, the inhibition at 1 µM was 81.9% and the inhibition at 10 µM came out at 89.1%.

Consider `CCS(=O)(=O)c1ccc(CC(=O)Nc2ccc(OC3(c4ccc(Cl)c(F)c4)CCC3)cc2)cc1` [Example 32, N-(4-{[1-(4-Chloro-3-fluorophenyl)cyclobutyl]oxy}phenyl)-2-[4-(ethylsulfonyl)phenyl]acetamide], for which the IC50 is below 50 nM, the inhibition at 1 µM amounted to 83.7% and the inhibition at 10 µM was 88.5%.

On to `CCS(=O)(=O)c1ccc(CC(=O)Nc2ccc(OC3(c4ccc(Cl)cc4F)CCC3)cc2)cc1` [Example 33, N-(4-{[1-(4-Chloro-2-fluorophenyl)cyclobutyl]oxy}phenyl)-2-[4-(ethylsulfonyl)phenyl]acetamide], for which the inhibition at 1 µM was determined as 76.7% and the inhibition at 10 µM was 81.8%.

For the compound `CCS(=O)(=O)c1ccc(CC(=O)Nc2ccc(OC3(c4ccc(F)c(F)c4)CCC3)cc2)cc1` [Example 34, N-{4-[1-(3,4-Difluoro-phenyl)-cyclobutoxy]-phenyl}-2-(4-ethanesulfonyl-phenyl)-acetamide], the IC50 was below 50 nM, the inhibition at 1 µM was 86.6% and the inhibition at 10 µM came to 89.7%.

`CCS(=O)(=O)c1ccc(CC(=O)Nc2ccc(OC3(c4ccc(F)c(F)c4)CCOCC3)cc2)cc1` [Example 35, N-{4-[4-(3,4-Difluoro-phenyl)-tetrahydro-pyran-4-yloxy]-phenyl}-2-(4-ethanesulfonyl-phenyl)-acetamide]: the IC50 lay in the range of 50 to 100 nM, the inhibition at 1 µM came to 79.5% and the inhibition at 10 µM was 86.7%.

As for `CCS(=O)(=O)c1ccc(CC(=O)Nc2ccc(OC3(c4ccc(Cl)cc4F)CCOCC3)cc2)cc1` [Example 36, N-(4-{[4-(4-Chloro-2-fluorophenyl)tetrahydro-2H-pyran-4-yl]oxy}phenyl)-2-[4-(ethylsulfonyl)phenyl]acetamide], the inhibition at 1 µM is 69.9% and the inhibition at 10 µM amounted to 74.7%.

Consider `CCS(=O)(=O)c1ccc(CC(=O)Nc2ccc(OC3(c4ccc(Cl)cc4)CCOCC3)cc2)cc1` [Example 37, N-{4-[4-(4-Chlorophenyl)-tetrahydro-pyran-4-yloxy]-phenyl}-2-(4-ethanesulfonyl-phenyl)-acetamide], for which the 50% inhibitory concentration (IC50) is above 100 nM, the inhibition at 1 µM came out at 80.8% and the inhibition at 10 µM was determined as 83.2%.

Turning to `CCS(=O)(=O)c1ccc(CC(=O)Nc2ccc(OC3(c4ccc(Cl)c(F)c4)CCOCC3)cc2)cc1` [Example 38, N-{4-[4-(4-Chloro-3-fluoro-phenyl)-tetrahydro-pyran-4-yloxy]-phenyl}-2-(4-ethanesulfonyl-phenyl)-acetamide], the concentration for half-maximal inhibition (IC50) was below 50 nM, the inhibition at 1 µM was determined as 85.8% and the inhibition at 10 µM is 87.8%.

For `CCS(=O)(=O)c1ccc(CC(=O)Nc2ccc(OC3(c4ccc(Cl)c(Cl)c4)CCOCC3)cc2)cc1` [Example 39, N-{4-[4-(3,4-Dichloro-phenyl)-tetrahydro-pyran-4-yloxy]-phenyl}-2-(4-ethanesulfonyl-phenyl)-acetamide], the half-inhibitory concentration (IC50) is 50 to 100 nM, the inhibition at 1 µM was 87.7% and the inhibition at 10 µM came out at 94.8%.

Consider `CCS(=O)(=O)c1ccc(CC(=O)Nc2ccc(OC3(c4ccc(Cl)cc4Cl)CCOCC3)cc2)cc1` [Example 40, N-{4-[4-(2,4-Dichloro-phenyl)-tetrahydro-pyran-4-yloxy]-phenyl}-2-(4-ethanesulfonyl-phenyl)-acetamide], for which the IC50 was below 50 nM, the inhibition at 1 µM was determined as 77.4% and the inhibition at 10 µM worked out at 81.9%.

With `CCS(=O)(=O)c1ccc(CC(=O)Nc2ccc(OC3(c4ccc(C(F)(F)F)c(F)c4)CCOCC3)cc2)cc1` [Example 41, 2-(4-Ethanesulfonyl-phenyl)-N-{4-[4-(3-fluoro-4-trifluoromethyl-phenyl)-tetrahydro-pyran-4-yloxy]-phenyl}-acetamide], the IC50 is above 100 nM, the inhibition at 1 µM was 78% and the inhibition at 10 µM came out at 87.2%.

For `CCS(=O)(=O)c1ccc(CC(=O)Nc2ccc(OC3(c4ccc(F)c(C(F)(F)F)c4)CCOCC3)cc2)cc1` [Example 42, 2-(4-Ethanesulfonyl-phenyl)-N-{4-[4-(4-fluoro-3-trifluoromethyl-phenyl)-tetrahydro-pyran-4-yloxy]-phenyl}-acetamide], the inhibition at 1 µM was 65.9% and the inhibition at 10 µM worked out at 86%.

Turning to `CCS(=O)(=O)c1ccc(CC(=O)Nc2ccc(OC3(c4ccc(Cl)c(F)c4)CCNCC3)cc2)cc1` [Example 43, N-(4-{[4-(4-Chloro-3-fluorophenyl)piperidin-4-yl]oxy}phenyl)-2-[4-(ethylsulfonyl)phenyl]acetamide], the inhibition at 1 µM was 27.3% and the inhibition at 10 µM worked out at 55%.

The values above are taken from US9718817B2, “Aryl and heteroaryl ether compounds as ROR gamma modulators” (Glenmark Pharmaceuticals S.A., priority 2014, dated 2017).
